Measured values published in US20240276935A1, “METHODS FOR ENHANCING DISEASE RESISTANCE AND INCREASING BIOMASS YIELD AND SECONDARY METABOLITE QUANTITIES IN CANNABIS SATIVA UTILIZING PLANT DEFENSE-RESPONSE ELICITORS” (priority 2023, published 2024).

Tests used:
Fusarium sp. = assay: Protective effect on rooting clones of C. sativa against Fusarium sp. (Table 1); assay type: in vivo; details: for Total Alive: cultivar III clones alive; for Total Alive / Total Dead: total of 30 replicate clones per elicitor treatment; for Total Dead: cultivar III clones dead; for Mean Survival: rooting clones of cultivar III, sprayed daily ~2 ml solution/clone, inoculated with Fusarium culture (~10^3 Cfu/ml), survival one week later, three repeats of 10 clones
Experimental: Cultivar III was shown from the data in FIG. 1B to be most susceptible to mold pathogens. Thus, 10 clones of cultivar III were selected to be treated with formulations containing bacterial/fungal PAMP elicitor compounds (as listed in Table 1) formulated in water. Treatments were performed by spraying the clones daily with ˜2 ml solution/clone, starting one week after cutting. Plants were inoculated two weeks after cutting (one week after treatment application) by applying 10 ml Fusarium culture (˜10^3 Cfu/ml) to the water tray. After one hour, clones were removed and placed in clean water trays. Survival was assessed one week later upon reaching the vegetative growth phase. The experiment was repeated three times for a total of 30 replicate clones per elicitor treatment.

C. sativa = system: C. sativa; design: species or system Cannabis sativa; details: in vivo
cannabis sativa = details: cited from earlier work
medical cannabis variety = details: 0.1 mM, foliar application; cited from earlier work

| SMILES | Total Alive (Fusarium sp.) | Total Dead (Fusarium sp.) | Mean Survival (Fusarium sp.) [%] | Yield (g/plant), Cultivar I (C. sativa) [g/plant] | Yield (g/plant), Cultivar II (C. sativa) | Yield (g/plant), Cultivar III (C. sativa) [g/plant] | A9-THC in extract (cannabis sativa; 1 M of SA (highest)) [%] | CBD in extract (cannabis sativa; 1 M of SA (highest)) [%] | TPC, TFC, TCC, Chl a, Chl b, and antioxidant capacity (cannabis sativa; 1 M treatment, lowest in control plants) | increase of CBDA content in inflorescences (medical cannabis variety) [%] |
| --- | --- | --- | --- | --- | --- | --- | --- | --- | --- | --- |
| CC(=O)N[C@H]1C(O)O[C@H](CO)[C@@H](O)[C@@H]1O[C@H](C)C(=O)O (stereo partly shown) [N-Acetylmuramic Acid] | 21 | 9 | 70.0 | 13.4 ± 2.1 | 11.5 ± 2^ g/plant | 11.5 ± 1.6 | – | – | – | – |
| CC(=O)N[C@H]1C(O)O[C@H](CO)[C@@H](O)[C@@H]1O (stereo partly drawn) [N-Acetyl-D-Glucosamine (4), N-Acetyl-D-Glucosamine] | 21 | 9 | 70.0 | 11.6 ± 1.7 | 10.7 ± 1.9 g/plant | 9.2 ± 0.7 | – | – | – | – |
| O=C(O)c1ccccc1O [SA, salicylic acid] | – | – | – | – | – | – | 22.84 | 37.81 | highest | – |
| CC/C=C\CC1C(=O)CCC1CC(=O)OC (stereo not shown) [MeJA, methyl jasmonate] | – | – | – | – | – | – | – | – | – | 15.6 |
| OC/C=C/c1ccc(O)cc1 [Paracoumaryl Alcohol] | – | – | – | 14.7 ± 2.5 | 9.2 ± 1 g/plant | 11.9 ± 2.9 | – | – | – | – |
| COc1cc(/C=C/CO)ccc1O [Coniferyl Alcohol] | – | – | – | 13.6 ± 2.9 | 12.8 ± 1.3 g/plant | 12.4 ± 1.8 | – | – | – | – |
| COc1cc(/C=C/CO)cc(OC)c1O [Sinapyl Alcohol (Syringil monomer), Sinapyl Alcohol] | – | – | – | 16.4 ± 1.2 | 12.9 ± 2.1 g/plant | 13.5 ± 2.6 | – | – | – | – |
| O=C(O)[C@H]1OC(O)[C@H](O)[C@@H](O)[C@H]1O (stereo partly shown) [D Galactoronic Acid] | – | – | – | 13.5 ± 1.8 | 11.5 ± 2.1 g/plant | 10.2 ± 1.8 | – | – | – | – |
